The source made the active and inactive calls. Rule as the data show it: actives have a measured IC50 and inactives only a lower limit.

The values below come from ChEMBL document CHEMBL1201862, “PubChem BioAssay data set” (2004).

Sequence of Envelope glycoprotein gp160 (Q6QLK5 whole entry, the tested form may be a part): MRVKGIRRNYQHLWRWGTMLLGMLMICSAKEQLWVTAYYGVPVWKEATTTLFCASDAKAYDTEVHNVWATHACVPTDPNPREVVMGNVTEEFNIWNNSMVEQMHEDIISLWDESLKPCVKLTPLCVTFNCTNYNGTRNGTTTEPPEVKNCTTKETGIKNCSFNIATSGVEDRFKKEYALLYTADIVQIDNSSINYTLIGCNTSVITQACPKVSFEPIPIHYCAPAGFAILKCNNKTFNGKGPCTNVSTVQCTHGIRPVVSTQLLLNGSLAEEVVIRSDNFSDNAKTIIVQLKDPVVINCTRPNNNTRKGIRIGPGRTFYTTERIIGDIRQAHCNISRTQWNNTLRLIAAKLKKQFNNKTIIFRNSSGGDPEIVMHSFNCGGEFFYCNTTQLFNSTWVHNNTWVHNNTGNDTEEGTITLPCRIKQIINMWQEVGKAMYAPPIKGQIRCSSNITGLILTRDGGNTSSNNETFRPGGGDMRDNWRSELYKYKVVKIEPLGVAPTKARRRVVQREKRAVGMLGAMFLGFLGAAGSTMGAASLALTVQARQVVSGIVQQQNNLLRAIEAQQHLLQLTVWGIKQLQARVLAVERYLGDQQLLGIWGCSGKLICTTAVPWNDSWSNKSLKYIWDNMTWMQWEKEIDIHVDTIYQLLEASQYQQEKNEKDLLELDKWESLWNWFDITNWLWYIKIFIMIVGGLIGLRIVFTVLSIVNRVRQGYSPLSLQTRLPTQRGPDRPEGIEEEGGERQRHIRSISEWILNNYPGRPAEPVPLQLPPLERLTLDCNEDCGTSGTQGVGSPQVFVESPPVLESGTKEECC

The assay addresses Envelope glycoprotein gp160 (Human immunodeficiency virus 1, UniProt Q6QLK5). The assay can be described thus: inhibitors of HIV fusion peptide binding, primary screen, biochemical, uHTS, fluorescence dequenching (AID 1986).
With `N=C1/C(=C\c2ccc(-c3cccc(C(=O)O)c3)o2)C(=O)N=C2SC=C(c3ccccc3)N12`, the IC50 is 6.64 µM (active).
With `CCc1nnc(NS(=O)(=O)c2ccc(NC(=O)/C=C/c3ccccc3Cl)cc2)s1` the figure was 23.7 µM (active); with `O=C(O)c1cc(NC(=O)c2ccc(Br)cc2)cc(NC(=O)c2ccc(Br)cc2)c1`, 29.4 µM (active); with `Cc1noc(NS(=O)(=O)c2ccc(NC(=O)Nc3ccc(Cl)c(Cl)c3)cc2)c1C`, 19.8 µM (active).
For the molecule `COc1ccc(C(=O)COC(=O)c2ccccc2NS(=O)(=O)c2ccc(O)c([N+](=O)[O-])c2)cc1`, the IC50 is 16.4 µM (active).
Next, `Brc1ccc(N/N=C(/N=Nc2nn[nH]n2)c2ccccc2)cc1`: 29.5 µM (active).
In the case of `CCOc1cc(/C=C2/C(=N)N3C(=NC2=O)SN=C3S(=O)(=O)C(C)C)ccc1OC(=O)c1ccco1`, the IC50 was 14.8 µM (active).
As to `CC(C)S(=O)(=O)C1=NSC2=NC(=O)/C(=C\c3ccc(OC(=O)c4ccco4)cc3)C(=N)N21`, the IC50 is 26.7 µM (active).
